From patent US20240148776A1, “TUMESCENT SOLUTION WITH B VITAMINS” (priority 2022, published 2024)

Columns and labels:
[1] = test system: acute Herpes zoster (shingles); details: cited from earlier work
[2] = Stability of vitamin B12 for injection and of its pink colour; assay type: physicochemical
Procedure: When Klein placed a purchase order for their first vial of injectable B12, they had no idea that the solution would have a red/pink color. When 10 mg in 10 ml of B12 was added to 1,000 ml of TELTA (1:100 dilution of B12), the result was a TELTAB solution with a distinctive pink color. […] They thought the novel pink color would be memorable and an interesting topic of conversation. […] The next conceptual step was the idea that the pink color of TELTAB might be a clever marketing gimmick, which could distinguish TELTAB from all other bags of saline.

[3] = test system: postherpetic neuralgia (PHN); assay: Tumescent treatment of patients with established postherpetic neuralgia (PHN); assay type: in vivo, human; details: B12 added to TEL[AT] in acute zoster
Description: “Hotspot pain” is the area within the dermatome where the zoster pain is clearly the most intense. […] “Elsewhere pain” is zoster pain that affects areas within the dermatome other than the hotspot.

Compound | reduction of zoster-related intensely painful itching compared to placebo ([1]; 2-week protocol of multiple daily injections) [%] | stability of pink pigment over time [2] | stability of nutritional function on exposure to light ([2]; light) | effect on pain of acute Herpes zoster compared to placebo ([1]; B12 1 mg/ml, 2 weeks) | incidence of PHN [3]
Cc1ncc(C[n+]2csc(CCO)c2C)c(N)n1 [Undiluted vitamin B1, Thiamine] | 30 |  |  |  | 
Cobalamin [B12] |  | does not appear to fade over time | not stable when exposed to light | gradually reduce the pain of acute Herpes zoster | reduced the incidence of PHN
